Measurements published in US10987359B2, “Oxadiazepinone derivatives and methods of treating hepatitis B infections” (priority 2016, dated 2021).

Tested on: HBV
Assay: HBV replication inhibition assay (BDNA assay) in HepG2.2.15 cells
Type: cell-based
Conditions: HBV replication assay (BDNA assay), HepG2.2.15 cells; read-out: DNA EC50
In short: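 HepG2.2.15 cells with stably integrated HBV were treated with serially diluted compounds at 0.5% DMSO for 6 days, with medium and compound refreshed at day 3. Encapsidated HBV DNA from DNase-treated supernatant was quantified by branched DNA assay. EC50 came from % inhibition versus DMSO, fitted non-linearly.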

**Q.** With C[C@@H]1Cc2nn3c(c2CN1C(=O)Nc1ccc(F)c(C#N)c1F)C(=O)N(C)OC(C(=O)N(C)CC(F)F)C3 (stereo in doubt) [Compound 153_D2, (4R*,9R)—N10-(3-cyano-2,4-difluorophenyl)-N4-(2,2-difluoroethyl)-N4,2,9-trimethyl-1-oxo-1,4,5,8,9,11-hexahydropyrido[4′,3′:3,4]pyrazolo[5,1-d][1,2,5]oxadiazepine-4,10(2H)-dicarboxamide] as the molecule, how does the EC50 read?
**A.** Its EC50 is 1 to 100 nM.

**Q.** How did the EC50 turn out when COC(=O)NCC1Cn2nc3c(c2C(=O)N(C)O1)CN(C(=O)Nc1ccc(F)c(C(F)(F)F)c1)[C@H](C)C3 (single isomer, unassigned) [Compound 181_D2, methyl (((4R*,9R)-10-((4-fluoro-3-(trifluoromethyl)phenyl)carbamoyl)-2,9-dimethyl-1-oxo-1,2,4,5,8,9,10,11-octahydropyrido[4′,3′:3,4]pyrazolo[5,1-d][1,2,5]oxadiazepin-4-yl)methyl)carbamate] was run?
**A.** Its EC50 is 1 to 100 nM.

**Q.** Which EC50 does the source give for CC(=O)NCC1Cn2nc3c(c2C(=O)N(C)O1)CN(C(=O)Nc1ccc(F)c(C#N)c1)[C@H](C)C3 (single isomer, unassigned) [Compound 176_D1, (4S*,9R)-4-(acetamidomethyl)-N-(3-cyano-4-fluorophenyl)-2,9-dimethyl-1-oxo-1,4,5,8,9,11-hexahydropyrido[4′,3′:3,4]pyrazolo[5,1-d][1,2,5]oxadiazepine-10(2H)-carboxamide] here?
**A.** The EC50 was 100 to 500 nM.

**Q.** With C[C@@H]1Cc2nn3c(c2CN1C(=O)Nc1ccc(F)c(Br)c1F)C(=O)N(C)OC(CO)C3 (single isomer, unassigned) [Compound 092_E2, (4R*,9R)—N-(3-bromo-2,4-difluorophenyl)-4-(hydroxymethyl)-2,9-dimethyl-1-oxo-1,4,5,8,9,11-hexahydropyrido[4′,3′:3,4]pyrazolo[5,1-d][1,2,5]oxadiazepine-10(2H)-carboxamide] as the molecule, how does the EC50 read?
**A.** Its EC50 is 1 to 100 nM.

**Q.** For CNC(=O)C1Cn2nc3c(c2C(=O)N(C)O1)CN(C(=O)Nc1ccc(F)c(C#N)c1)[C@H](C)C3 (stereo in doubt) [Compound 112_D1, (4S*,9R)—N10-(3-cyano-4-fluorophenyl)-N4,2,9-trimethyl-1-oxo-1,4,5,8,9,11-hexahydropyrido[4′,3′:3,4]pyrazolo[5,1-d][1,2,5]oxadiazepine-4,10(2H)-dicarboxamide], which EC50 is on record?
**A.** Its EC50 is over 1000 nM.

Same assay, conditions: Hepatitis B virus, HepG2.2.15, HBV replication assay (BDNA assay), HepG2.2.15 cells; read-out: DNA EC50

**Q.** For CN1OC(CO)Cn2nc3c(c2C1=O)CN(C(=O)Nc1cc(Cl)ccc1F)CC3 (single isomer, unassigned) [Compound 139_E1, (S*)—N-(5-chloro-2-fluorophenyl)-4-(hydroxymethyl)-2-methyl-1-oxo-1,4,5,8,9,11-hexahydropyrido[4′,3′:3,4]pyrazolo[5,1-d][1,2,5]oxadiazepine-10(2H)-carboxamide], which EC50 is on record?
**A.** The EC50 was 1 to 100 nM.

**Q.** CN1N=C(CO)Cn2nc3c(c2C1=O)CN(C(=O)Nc1ccc(F)c(C#N)c1)CC3 [Compound 228, N-(3-cyano-4-fluorophenyl)-4-(hydroxymethyl)-2-methyl-1-oxo-1,2,5,8,9,11-hexahydro-10H-pyrido[4′,3′:3,4]pyrazolo[5,1-d][1,2,5]triazepine-10-carboxamide] was tested. Which EC50 did it give?
**A.** Its EC50 is 1 to 100 nM.

**Q.** CN1OC(C(=O)N2CC(F)(F)C2)Cn2nc3c(c2C1=O)CN(C(=O)Nc1ccc(F)c(Cl)c1)CC3 (stereo not drawn) [Compound 131, N-(3-chloro-4-fluorophenyl)-4-(3,3-difluoroazetidine-1-carbonyl)-2-methyl-1-oxo-1,4,5,8,9,11-hexahydropyrido[4′,3′:3,4]pyrazolo[5,1-d][1,2,5]oxadiazepine-10(2H)-carboxamide] was tested. Which EC50 did it give?
**A.** The EC50 was 1 to 100 nM.

**Q.** For CN1OC(CNCC(F)F)Cn2nc3c(c2C1=O)CN(C(=O)Nc1ccc(F)c(C#N)c1)CC3 (single isomer, unassigned) [Compound 187_E1, (S*)—N-(3-cyano-4-fluorophenyl)-4-(((2,2-difluoroethyl)amino)methyl)-2-methyl-1-oxo-1,4,5,8,9,11-hexahydropyrido[4′,3′:3,4]pyrazolo[5,1-d][1,2,5]oxadiazepine-10(2H)-carboxamide], which EC50 is on record?
**A.** Its EC50 is 1 to 100 nM.

**Q.** Which EC50 does the source give for C[C@@H]1Cc2nn3c(c2CN1C(=O)Nc1cc(Br)c(F)cc1F)C(=O)N(C)OC(CO)C3 (stereo in doubt) [Compound 089_E1, (4S*,9R)—N-(5-bromo-2,4-difluorophenyl)-4-(hydroxymethyl)-2,9-dimethyl-1-oxo-1,4,5,8,9,11-hexahydropyrido[4′,3′:3,4]pyrazolo[5,1-d][1,2,5]oxadiazepine-10(2H)-carboxamide] here?
**A.** Its EC50 is 1 to 100 nM.

**Q.** For CN1OC(C(N)=O)Cn2nc3c(c2C1=O)CN(C(=O)Nc1ccc(F)c(Cl)c1)CC3 (stereo not drawn) [Compound 072, N10-(3-chloro-4-fluoro-phenyl)-2-methyl-1-oxo-5,8,9,11-tetrahydro-4H-pyrido[2,3]pyrazolo[2,4-d][1,2,5]oxadiazepine-4,10-dicarboxamide], which EC50 is on record?
**A.** The EC50 was 1 to 100 nM.

**Q.** Which EC50 does the source give for CN1OC(CO)Cn2nc3c(c2C1=O)CN(C(=O)Nc1cccc(Br)c1)CC3 (stereo not drawn) [Compound 001, N-(3-bromophenyl)-4-(hydroxymethyl)-2-methyl-1-oxo-1,4,5,8,9,11-hexahydropyrido[4′,3′:3,4]pyrazolo[5,1-d][1,2,5]oxadiazepine-10(2H)-carboxamide] here?
**A.** Its EC50 is 1 to 100 nM.

**Q.** How did the EC50 turn out when CN1OC(CNCC(F)F)Cn2nc3c(c2C1=O)CN(C(=O)Nc1cc(Br)c(F)cc1F)CC3 (single isomer, unassigned) [Compound 193_E1, (S*)—N-(5-bromo-2,4-difluorophenyl)-4-(((2,2-difluoroethyl)amino)methyl)-2-methyl-1-oxo-1,4,5,8,9,11-hexahydropyrido[4′,3′:3,4]pyrazolo[5,1-d][1,2,5]oxadiazepine-10(2H)-carboxamide] was run?
**A.** Its EC50 is 1 to 100 nM.

**Q.** For C[C@@H]1Cc2nn3c(c2CN1C(=O)Nc1ccc(F)c(Cl)c1)C(=O)N(C)N=C(CO)C3 [Compound 235, (R)-N-(3-chloro-4-fluorophenyl)-4-(hydroxymethyl)-2,9-dimethyl-1-oxo-1,2,5,8,9,11-hexahydro-10H-pyrido[4′,3′:3,4]pyrazolo[5,1-d][1,2,5]triazepine-10-carboxamide], which EC50 is on record?
**A.** Its EC50 is 1 to 100 nM.

**Q.** CN1OC(COCC(F)(F)F)Cn2nc3c(c2C1=O)CN(C(=O)Nc1ccc(F)c(Cl)c1)CC3 (stereo not drawn) [Compound 106, N-(3-chloro-4-fluoro-phenyl)-2-methyl-1-oxo-4-(2,2,2-trifluoroethoxymethyl)-5,8,9,11-tetrahydro-4H-pyrido[2,3]pyrazolo[2,4-d][1,2,5]oxadiazepine-10-carboxamide] was tested. Which EC50 did it give?
**A.** The EC50 was 1 to 100 nM.

**Q.** How did the EC50 turn out when CN1OC(CO)Cn2nc3c(c2C1=O)CN(C(=O)Nc1cc(F)c(F)c(Cl)c1F)CC3 (single isomer, unassigned) [Compound 137_E1, (S*)—N-(3-chloro-2,4,5-trifluorophenyl)-4-(hydroxymethyl)-2-methyl-1-oxo-1,4,5,8,9,11-hexahydropyrido[4′,3′:3,4]pyrazolo[5,1-d][1,2,5]oxadiazepine-10(2H)-carboxamide] was run?
**A.** Its EC50 is 1 to 100 nM.

**Q.** How did the EC50 turn out when C[C@@H]1Cc2nn3c(c2CN1C(=O)Nc1ccc(F)c(Cl)c1)C(=O)N(C)OC(COCC(F)F)C3 (stereo in doubt) [Compound 121_D2, (4R*,9R)—N-(3-chloro-4-fluorophenyl)-4-((2,2-difluoroethoxy)methyl)-2,9-dimethyl-1-oxo-1,4,5,8,9,11-hexahydropyrido[4′,3′:3,4]pyrazolo[5,1-d][1,2,5]oxadiazepine-10(2H)-carboxamide] was run?
**A.** Its EC50 is 1 to 100 nM.

**Q.** With CN1OCCn2nc3c(c2C1=O)CN(C(=O)Nc1ccc(F)c(Cl)c1)CC3 [Compound 066, N-(3-chloro-4-fluoro-phenyl)-2-methyl-1-oxo-5,8,9,11-tetrahydro-4H-pyrido[2,3]pyrazolo[2,4-c][1,2,5]oxadiazepine-10-carboxamide] as the molecule, how does the EC50 read?
**A.** Its EC50 is 1 to 100 nM.

**Q.** CN1OC(CF)Cn2nc3c(c2C1=O)CN(C(=O)Nc1cccc(Cl)c1)CC3 (single isomer, unassigned) [Compound 037_E1, (S*)—N-(3-chlorophenyl)-4-(fluoromethyl)-2-methyl-1-oxo-1,4,5,8,9,11-hexahydropyrido[4′,3′:3,4]pyrazolo[5,1-d][1,2,5]oxadiazepine-10(2H)-carboxamide] was tested. Which EC50 did it give?
**A.** The EC50 was 1 to 100 nM.

**Q.** How did the EC50 turn out when CN1OC(CO)Cn2nc3c(c2C1=O)CN(C(=O)Nc1cc(Br)ccc1F)CC3 (single isomer, unassigned) [Compound 141_E1, (S*)—N-(5-bromo-2-fluorophenyl)-4-(hydroxymethyl)-2-methyl-1-oxo-1,4,5,8,9,11-hexahydropyrido[4′,3′:3,4]pyrazolo[5,1-d][1,2,5]oxadiazepine-10(2H)-carboxamide] was run?
**A.** The EC50 was 1 to 100 nM.

**Q.** For CN1OC(CNS(C)(=O)=O)Cn2nc3c(c2C1=O)CN(C(=O)Nc1ccc(F)c(Cl)c1)CC3 (stereo not drawn) [Compound 165, N-(3-chloro-4-fluorophenyl)-2-methyl-4-(methylsulfonamidomethyl)-1-oxo-1,4,5,8,9,11-hexahydropyrido[4′,3′:3,4]pyrazolo[5,1-d][1,2,5]oxadiazepine-10(2H)-carboxamide], which EC50 is on record?
**A.** Its EC50 is 1 to 100 nM.

**Q.** CCOC(=O)NCC1Cn2nc3c(c2C(=O)N(C)O1)CN(C(=O)Nc1ccc(F)c(Cl)c1)CC3 (stereo not drawn) [Compound 202, ethyl ((10-((3-chloro-4-fluorophenyl)carbamoyl)-2-methyl-1-oxo-1,2,4,5,8,9,10,11-octahydropyrido[4′,3′:3,4]pyrazolo[5,1-d][1,2,5]oxadiazepin-4-yl)methyl)carbamate] was tested. Which EC50 did it give?
**A.** The EC50 was 1 to 100 nM.

**Q.** With Cc1cc(NC(=O)N2CCc3nn4c(c3C2)C(=O)N(C)OC(CO)C4)c(F)cc1F (single isomer, unassigned) [Compound 143_E1, (S*)—N-(2,4-difluoro-5-methylphenyl)-4-(hydroxymethyl)-2-methyl-1-oxo-1,4,5,8,9,11-hexahydropyrido[4′,3′:3,4]pyrazolo[5,1-d][1,2,5]oxadiazepine-10(2H)-carboxamide] as the molecule, how does the EC50 read?
**A.** Its EC50 is 1 to 100 nM.

**Q.** How did the EC50 turn out when CN1OC(CS(C)(=O)=O)Cn2nc3c(c2C1=O)CN(C(=O)Nc1ccc(F)c(Cl)c1)CC3 (stereo not drawn) [Compound 050, N-(3-chloro-4-fluorophenyl)-2-methyl-4-((methylsulfonyl)methyl)-1-oxo-1,4,5,8,9,11-hexahydropyrido[4′,3′:3,4]pyrazolo[5,1-d][1,2,5]oxadiazepine-10(2H)-carboxamide] was run?
**A.** The EC50 was 1 to 100 nM.
